Results as given in ChEMBL document CHEMBL4229365, “Synthesis of novel ring-contracted artemisinin dimers with potent anticancer activities” (Eur J Med Chem, 2018).
Active and inactive are the calls of the source. No cut-off for these calls is given here.

Tests used:
[1] = Half life in human liver microsomes at 1.11 uM preincubated for 10 mins followed by NADPH addition by LC-MS/MS analysis; format: ADME, microsome
[2] = Stability of the compound in air at 60 degC after 24 hrs; format: physicochemical
[3] = system: A-375; assay: Antiproliferative activity against human A375 cells after 72 hrs by CCK-8 assay; format: functional, cell-based; conditions: A-375, 72 h
[4] = Clearance in human liver microsomes at 1.11 uM preincubated for 10 mins followed by NADPH addition by LC-MS/MS analysis; format: ADME, microsome; conditions: read-out: CLH
[5] = system: SH-SY5Y; assay: Antiproliferative activity against human SH-SY5Y cells after 72 hrs by CCK-8 assay; format: functional, cell-based
[6] = system: PC-12; assay: Induction of apoptosis in rat PC12 cells assessed as increase in cleaved caspase3 expression level after 72 hrs by Western blot analysis; format: functional, cell-based
[7] = system: PC-12; assay: Cell cycle arrest in rat PC12 cells assessed as accumulation at G1 phase after 24 hrs by propidium iodide/RNase A staining-based flow cytometric analysis; format: functional
[8] = system: PC-12; assay: Cell cycle arrest in rat PC12 cells assessed as accumulation at G2 phase at 5 uM after 24 hrs by propidium iodide/RNase A staining-based flow cytometric analysis (reference value: 11.63%); format: functional
[9] = system: PC-12; assay: Cell cycle arrest in rat PC12 cells assessed as accumulation at G1 phase at 1 uM after 24 hrs by propidium iodide/RNase A staining-based flow cytometric analysis (reference value: 58.07%); format: functional
[10] = system: PC-12; assay: Induction of apoptosis in rat PC12 cells assessed as nuclear condensation up to 3.13 uM after 24 hrs by Hoechst 33258 staining-based fluorescence microscopic method; format: functional, cell-based
[11] = system: PC-12; assay: Cell cycle arrest in rat PC12 cells assessed as accumulation at S phase at 1 uM after 24 hrs by propidium iodide/RNase A staining-based flow cytometric analysis (reference value: 30.30%); format: functional
[12] = system: A549; assay: Antiproliferative activity against human A549 cells after 72 hrs by CCK-8 assay; format: functional, cell-based; conditions: A549, 72 h
[13] = system: PC-12; assay: Induction of apoptosis in rat PC12 cells assessed as apoptotic cells up to 3.13 uM after 24 hrs by Annexin V-FITC/propidium iodide staining-based flow cytometric analysis (reference value: 6.56%); format: functional
[14] = system: PC-12; assay: Induction of apoptosis in rat PC12 cells assessed as decrease in Bcl-xL level up to 5 uM after 72 hrs by Western blot analysis; format: functional, cell-based
[15] = system: PC-12; assay: Cell cycle arrest in rat PC12 cells assessed as accumulation at G2 phase at 1 uM after 24 hrs by propidium iodide/RNase A staining-based flow cytometric analysis (reference value: 11.63%); format: functional
[16] = system: PC-12; assay: Induction of apoptosis in rat PC12 cells assessed as increase in cleaved caspase9 expression level after 72 hrs by Western blot analysis; format: functional, cell-based
[17] = system: PC-12; assay: Cell cycle arrest in rat PC12 cells assessed as accumulation at G1 phase at 3 uM after 24 hrs by propidium iodide/RNase A staining-based flow cytometric analysis (reference value: 58.07%); format: functional
[18] = system: PC-12; assay: Induction of apoptosis in rat PC12 cells assessed as nuclear fragmentation up to 3.13 uM after 24 hrs by Hoechst 33258 staining-based fluorescence microscopic method; format: functional, cell-based
[19] = system: PC-12; assay: Induction of apoptosis in rat PC12 cells assessed as increase in Bad protein expression up to 5 uM after 72 hrs by Western blot analysis; format: functional, cell-based
[20] = system: PC-12; assay: Antiproliferative activity against rat PC12 cells after 72 hrs by CCK-8 assay; format: functional, cell-based; conditions: PC-12, 72 h
[21] = system: PC-12; assay: Cell cycle arrest in rat PC12 cells assessed as accumulation at S phase at 5 uM after 24 hrs by propidium iodide/RNase A staining-based flow cytometric analysis (reference value: 30.30%); format: functional
[22] = system: PC-12; assay: Cell cycle arrest in rat PC12 cells assessed as accumulation at S phase at 3 uM after 24 hrs by propidium iodide/RNase A staining-based flow cytometric analysis (reference value: 30.30%); format: functional
[23] = system: L02; assay: Antiproliferative activity against human L02 cells after 72 hrs by CCK-8 assay; format: cell-based; conditions: L02, 72 h
[24] = system: PC-12; assay: Cell cycle arrest in rat PC12 cells assessed as accumulation at G2 phase at 3 uM after 24 hrs by propidium iodide/RNase A staining-based flow cytometric analysis (reference value: 11.63%); format: functional
[25] = system: HCT-116; assay: Antiproliferative activity against human HCT116 cells after 72 hrs by CCK-8 assay; format: functional, cell-based; conditions: HCT-116, 72 h
[26] = system: PC-12; assay: Cell cycle arrest in rat PC12 cells assessed as accumulation at G1 phase at 5 uM after 24 hrs by propidium iodide/RNase A staining-based flow cytometric analysis (reference value: 58.07%); format: functional
[27] = system: PC-12; assay: Induction of apoptosis in rat PC12 cells assessed as increase in Bax protein expression up to 5 uM after 72 hrs by Western blot analysis; format: functional, cell-based

C[C@@H]1CC[C@@H]2[C@]34OO[C@](C)(CC[C@@H]13)O[C@H]4O[C@]2(C)COP(=O)(OC[C@@]1(C)O[C@@H]2O[C@@]3(C)CC[C@H]4[C@H](C)CC[C@@H]1[C@@]24OO3)Oc1ccccc1
half-life at 1.11 µM [1]: 18.3 min
Stability [2]: Stable
IC50 [3]: 5.96 µM
microsomal CLint at 1.11 µM [4]: 54 µL/min/mg
IC50 [5]: 3.48 µM
Activity [6]: Dose-dependent effect
Activity [7]: Dose-dependent effect
Activity [8]: 3.61%
Activity [9]: 76.54%
Activity [10]: Active
Activity [11]: 14.7%
IC50 [12]: 6.37 µM
Activity [13]: 6.56 - 31.04%
Activity [14]: Active
Activity [15]: 8.77%
Activity [16]: Dose-dependent effect
Activity [17]: 79.4%
Activity [18]: Active
Activity [19]: Active
IC50 [20]: 1560 nM
Activity [21]: 10.33%
Activity [22]: 13.79%
IC50 [23]: 10.3 µM
Activity [24]: 6.81%
IC50 [25]: 6.61 µM
Activity [26]: 86.06%
Activity [27]: Active

C[C@@H]1CC[C@H]2[C@@H](O)[C@H](OC(=O)CCC(=O)O[C@@H]3O[C@@H]4O[C@@]5(C)CC[C@H]6[C@H](C)CC[C@@H]([C@H]3O)[C@@]46OO5)O[C@@H]3O[C@@]4(C)CC[C@@H]1[C@]32OO4
half-life at 1.11 µM [1]: 8 min
Stability [2]: Stable
IC50 [3]: 33.5 µM
microsomal CLint at 1.11 µM [4]: 124 µL/min/mg
IC50 [5]: > 50 µM
IC50 [12]: 45.7 µM
IC50 [20]: > 50000 nM
IC50 [23]: > 50 µM
IC50 [25]: 36.3 µM
